Source: US9902761B2, “Polypeptides, nucleic acids and uses thereof” (AGENCY FOR SCIENCE, TECHNOLOGY AND RESEARCH, priority 2013, dated 2018)

Key:
HIV-1 NL43 = assay: HIV inhibition assay in P4C5 HeLa cells (β-gal activity); type: cell-based; settings: CXCR4-tropic strain
HIV-1 NLAD8 = assay: as above; type: cell-based; settings: CCR5-tropic virus
VSV-G pseudotyped virus = type: cell-based, HIV (VSV)

Cc1ccnc2c1NC(=O)c1cccnc1N2C1CC1 [Nevirapine, reference compound]
blocks all viruses tested: inhibition of infection with HIV-1 NL43 (HIV-1 NL43) | inhibition of infection with HIV-1 NLAD8 (HIV-1 NLAD8) | inhibition of infection with VSV-G pseudotyped virus (VSV-G pseudotyped virus)
